Measurements reported in patent US5032514A, “Metabolic pathway engineering to increase production of ascorbic acid intermediates” (Genentech, Inc., priority 1988, dated 1991).

Experiments:
[1] = test system: 2-ketoaldonate reductase [2KR(B)]; assay: induction of 2-keto reductase activity by carbohydrates in LB media; type: cell-based, E. herbicola 21998tkrAΔ3; conditions: compound as inducer in LB media
Text: The fact that idonate was still produced in the tkrA^- mutant led to the discovery of a second 2-ketoaldonate reductase [2KR(B)], encoded by an inducible tkrB gene. This protein can be purified from the tkrAΔ3 strain and the gene has been cloned (see below). Evidence that 2KR(A) and 2KR(B) are in fact different enzymes is based on observed differences in protein sequence, molecular weight on SDS gels, subunit composition, migration on native gels, kinetic parameters, and gene sequence. 2KR(B) activity is inducible in LB media by a variety of carbohydrates which are listed on Table 1. […] 2-keto reductase activity is found widely elsewhere in nature. We have also identified 2-keto aldonate reductase activity in both E. coli MM294 and Corynebacterium sp. ATCC 31090, neither of which is known to be ketogenic nor produce 2-KLG as a natural product.

5-KDG reductase = assay: induction of 5-keto reductase activity by carbohydrates in LB media; type: cell-based, E. herbicola 21998tkrAΔ3; conditions: compound as inducer in LB media
idonate dehydrogenase = assay: membrane bound idonate dehydrogenase assay (crude membrane fraction)
E. herbicola = assay: growth on sole carbon source in minimal media; type: cell-based
Experimental: Although a large number of potential metabolic routes from glucose exist, IA is likely produced from either 2-KLG or 5-keto-D-gluconate (5-KDG) catalyzed by a stereospecific pyridine nucleotide-linked reductase. Evidence for both the 5-KDG route in Fusarium species (Takagi, Agric. Biol. Chem. 26:719 [1962]) and the 2-KLG route in a variety of microorganisms has been observed (Makeover et al., supra). Shake flask incubations of whole cells of E. herbicola at 11 OD550 containing 12 g/1 of either 2-KLG or 5-KDG were carried out. Approximately 4 g/1 of IA was produced in flasks containing 2-KLG in 40 hours. The total IA and 2-KLG concentration remained constant throughout the bioconversion. […] Furthermore, E. herbicola was grown using either 5-KDG, G, GA, 2-KDG, or 2,5-DKG as the sole carbon source in minimal media. […] Thus the IA produced in E. herbicola into which an expression vector encoding 2,5-DKG reductase has been transferred is derived from 2-KLG catabolism.

gluconate dehydrogenase = assay: membrane bound gluconate dehydrogenase assay (crude membrane fraction); conditions: read-out: Ki, competitive inhibition of gluconate dehydrogenase
tac promoters = assay: modulation of expression level by sequential increases in IPTG; type: cell-based, Erwinia herbicola; conditions: for 2-KLG + IA/DKG: fractional weight basis relative to 2,5-DKG
Experimental: Additional experiments were carried out modulating the expression level by sequential increases in IPTG to induce the tac promoters.
In the table below, IPTG is the concentration of isopropylthio-β-galactoside added to the culture medium. Enzyme activity is the sum of the activities of 2,5-DKG reductase and 2-keto aldonate reductase per mg of protein (measured using the Bradford assay, supra). 2-KLG is measured on gram per gram dry cell weight per hour. Finally, the 2-KLG and idonate is measured on a fractional weight basis relative to 2,5-DKG.

SMILES	2 KR Spec. Act. [1] [µmol/min/mg]	5 KR Spec. Act. (5-KDG reductase) [µmol/min/mg]	also measured
O=C(CO)[C@@H](O)[C@H](O)[C@H](O)CO [D-fructose]	0.028	0.032	–
O=C(O)[C@H](O)[C@@H](O)[C@H](O)[C@@H](O)CO [IA, L-idonic acid]	–	–	Km (idonate dehydrogenase; read-out: apparent Km, idonate dehydrogenase activity, pH 6.0, 25° C.): 20 mM; growth using compound as the sole carbon source (E. herbicola): did not grow
O=C(O)C(=O)[C@@H](O)[C@H](O)C(=O)CO [2,5-DKG, 2,5-diketo-D-gluconic acid]	0.122	0.103	–
O=C(O)C(=O)[C@@H](O)[C@H](O)[C@@H](O)CO [2-KLG, 2-keto-L-gulonic acid]	0.014	0.061	Ki (idonate dehydrogenase; read-out: Ki, competitive inhibition of idonate dehydrogenase, crude membrane fraction): 13 mM; growth using compound as the sole carbon source (E. herbicola): did not grow
O=C(O)C(=O)[C@@H](O)[C@H](O)[C@H](O)CO [2-KDG, 2-keto-D-gluconate]	0.045	0.143	inhibition of idonate dehydrogenase (idonate dehydrogenase; crude membrane fraction): but not idonate dehydrogenase; Ki (gluconate dehydrogenase): > 10 mM
O=C(O)[C@H](O)[C@@H](O)[C@H](O)[C@H](O)CO [GA, D-gluconate]	0.020	0.144	–
OC[C@@H](O)[C@@H](O)[C@H](O)[C@H](O)CO [D-mannitol]	0.027	0.032	–
CC(C)S[C@@H]1O[C@H](CO)[C@H](O)[C@H](O)[C@H]1O [IPTG, isopropylthio-β-galactoside]	–	–	2-KLG Prod. Rate (tac promoters; [IPTG] 0.001 mM): 0.000 g/g-DCW-Hr; Enzyme Activity (sum of 2,5-DKG reductase and 2-keto aldonate reductase) (tac promoters; [IPTG] 0.001 mM): 0.029 umole/mg-P-min; 2-KLG + IA/DKG (tac promoters; [IPTG] 0.001 mM): 0.000; 2-KLG Prod. Rate (tac promoters; [IPTG] 0.005 mM): 0.004 g/g-DCW-Hr; Enzyme Activity (sum of 2,5-DKG reductase and 2-keto aldonate reductase) (tac promoters; [IPTG] 0.005 mM): 0.051 umole/mg-P-min; 2-KLG + IA/DKG (tac promoters; [IPTG] 0.005 mM): 0.025; 2-KLG Prod. Rate (tac promoters; [IPTG] 0.050 mM): 0.062 g/g-DCW-Hr; Enzyme Activity (sum of 2,5-DKG reductase and 2-keto aldonate reductase) (tac promoters; [IPTG] 0.050 mM): 0.100 umole/mg-P-min; 2-KLG + IA/DKG (tac promoters; [IPTG] 0.050 mM): 0.350; 2-KLG Prod. Rate (tac promoters; [IPTG] 0.500 mM): 0.126 g/g-DCW-Hr; Enzyme Activity (sum of 2,5-DKG reductase and 2-keto aldonate reductase) (tac promoters; [IPTG] 0.500 mM): 0.140 umole/mg-P-min; 2-KLG + IA/DKG (tac promoters; [IPTG] 0.500 mM): 0.530
O=C(CO)[C@@H](O)[C@H](O)[C@@H](O)C(=O)O [5-KDG, 5-keto-D-gluconate]	0.119	0.105	–
O=C[C@H](O)[C@@H](O)[C@H](O)[C@H](O)CO [D-glucose]	0.167	0.27	–
OCC(O)CO [D-glycerol]	0.024	0.035	–
